# Square brackets hold non-standard residues; d marks the D form. Ends that are not written are not given here. Ava = NCCCCC(=O)O
# Legend:
# Assay type in all cases: cell-based, human
# P-cadherin = P-cadherin mRNA expression in Hair Germinal Matrix Cells (qPCR); conditions: for P-cadherin mRNA expression: 0.0001 wt. % peptide, 48 h, percent change in mRNA expression relative to vehicle control, normalized to GAPDH; for Effect on levels of desmosomal protein P-cadherin (in words): at the concentration tested
# Method: (§1) Hair Germinal Matrix Cells (ScienCell, Carlsbad, Calif.) were grown in 6-well tissue culture plate (1.5×10^5 cells/well) in MSCM medium supplemented with growth factors (ScienCell, Carlsbad, Calif.). Cells were incubated overnight at 37° C. and 5% CO2. Next day, cells were changed into fresh media and treated with given concentration of peptides for 48 h. After treatment, cells were washed with ice cold PBS, collected into RLT lysis buffer and RNA was extracted using RNeasy Mini Kit (Qiagen, Valencia, Calif.) following manufactures recommendations. 200 ng of RNA was used for cDNA synthesis using High Capactiy cDNA Reverse Transcription Kit (Life Technologies, Carlsbad, Calif.). 1 μL of undiluted cDNA was used per qPCR reaction. Primers used were purchased from Life technologies (Carlsbad, Calif.). Following primers were used: Keratin35 (Hs0060557_g1), KAP8 (Hs00545666_s1), KAP11 (Hs00545667_s1), P-cadherin (Hs00999925_m1). Expression was normalized to GAPDH. The conditions of q-PCR were: an incubation step at 50° C. for 2 minutes and an enzyme activation step at 95° C. for 10minutes; followed by 45 cycles of 95° C. for 30 seconds and 60° C. for 1 minute. CT value was obtained from the software of the Stratagene MX2005P.
# [1] = system: Hair Germinal Matrix Cells; test: Proliferation of hair matrix cells (BrdU proliferation kit); conditions: for Proliferation (%): 24 h treatment, percent change in cell proliferation relative to vehicle control; for Effect on Hair Germinal Matrix Cell proliferation (in words): at the concentrations tested
# Method: Hair Germinal Matrix Cells (ScienCell, Carlsbad, Calif.) were grown in 96-well tissue culture plate (5000 cells/well) in MSCM medium supplemented with growth factors (ScienCell, Carlsbad, Calif.). Cells were incubated overnight at 37° C. and 5% CO2. Next, media were aspirated and cells were incubated in MSCM medium without growth supplement for 4-6 h, followed by treatment with given concentration of peptides for 24 h. After treatment cells were incubated with BrdU for 4 h and proliferation rate was evaluating using BrdU proliferation kit from Cell Signaling (Danvers, Mass.). The results are summarized in Table 2 below as percent change cell proliferation relative to vehicle control (peptide concentrations provided in parentheses) using the following key: 0: <10%, +:11-20%, ++:21-40%, +++:41-60%, ++++:>60%.
# KAP8 = KAP8 mRNA expression in Hair Germinal Matrix Cells (qPCR); conditions: for KAP 8 mRNA expression: 0.0001 wt. % peptide, 48 h, percent change in mRNA expression relative to vehicle control, normalized to GAPDH; for Effect on Keratin Associated Protein 8 mRNA expression (in words): at the concentration tested
# Method: as §1
# Keratin35 = test: Keratin 35 mRNA expression in Hair Germinal Matrix Cells (qPCR); conditions: for Keratin 35 mRNA expression: 0.0001 wt. % peptide, 48 h, percent change in mRNA expression relative to vehicle control, normalized to GAPDH; for Effect on Keratin 35 mRNA expression (in words): at the concentration tested
# Method: as §1
# KAP11 = KAP11 mRNA expression in Hair Germinal Matrix Cells (qPCR); conditions: for KAP 11 mRNA expression: 0.0001 wt. % peptide, 48 h, percent change in mRNA expression relative to vehicle control, normalized to GAPDH; for Effect on KAP11 mRNA expression (in words): at the concentration tested
# Method: as §1
Substance,P-cadherin mRNA expression (P-cadherin),Proliferation (%) ([1]; 0.00001 wt. % peptide),Proliferation (%) ([1]; 0.0001 wt. % peptide),KAP 8 mRNA expression (KAP8),Effect on Keratin Associated Protein 8 mRNA expression (in words) (KAP8),Keratin 35 mRNA expression (Keratin35),Effect on Keratin 35 mRNA expression (in words) (Keratin35),KAP 11 mRNA expression (KAP11),Effect on KAP11 mRNA expression (in words) (KAP11),Effect on levels of desmosomal protein P-cadherin (in words) (P-cadherin),Effect on Hair Germinal Matrix Cell proliferation (in words) [1]
K-Ava-PVGK: K-Ava-derivative of tripeptide PVG; Ava = amino valeric acid (K[Ava]PVGK),0 (0; <10%),0 (0: <10%),0 (0: <10%),++++ (++++: >60%),effective in upregulating,+++ (+++: 41-60%),effective in upregulating,+++ (+++: 41-60%),effective in upregulating,–,–
K-Ava-YNTK: K-Ava-derivative of tripeptide YNT; Ava = amino valeric acid (K[Ava]YNTK),+++ (+++: 41-60%),0 (0: <10%),0 (0: <10%),0 (0; <10%),not effective,0 (0; <10%),not effective,0 (0; <10%),not effective,effect was enhanced,–
PVG: tripeptide of the amino acid sequence PVG,0 (0; <10%),0 (0: <10%),+ (+:11-20%),++++ (++++: >60%),effectively increase,0 (0; <10%),–,0 (0; <10%),–,–,effectively increase
YNT: tripeptide of the amino acid sequence YNT,+ (+: 11-20%),0 (0: <10%),++ (++:21-40%),++++ (++++: >60%),effectively increase,0 (0; <10%),–,++++ (++++: >60%),–,effective in boosting,effectively increase
